Experimental data published in ChEMBL document CHEMBL1138271, “Discovery of 5-substituted-6-chlorouracils as efficient inhibitors of human thymidine phosphorylase” (J Med Chem, 2007).

Legend:
Thymidine phosphorylase [1] = biological target: T1, Thymidine phosphorylase (Homo sapiens, UniProt P19971); assay: Inhibition of human recombinant thymidine phosphorylase expressed in V79 cells; format: cell-based
T1 sequence (P19971 whole entry): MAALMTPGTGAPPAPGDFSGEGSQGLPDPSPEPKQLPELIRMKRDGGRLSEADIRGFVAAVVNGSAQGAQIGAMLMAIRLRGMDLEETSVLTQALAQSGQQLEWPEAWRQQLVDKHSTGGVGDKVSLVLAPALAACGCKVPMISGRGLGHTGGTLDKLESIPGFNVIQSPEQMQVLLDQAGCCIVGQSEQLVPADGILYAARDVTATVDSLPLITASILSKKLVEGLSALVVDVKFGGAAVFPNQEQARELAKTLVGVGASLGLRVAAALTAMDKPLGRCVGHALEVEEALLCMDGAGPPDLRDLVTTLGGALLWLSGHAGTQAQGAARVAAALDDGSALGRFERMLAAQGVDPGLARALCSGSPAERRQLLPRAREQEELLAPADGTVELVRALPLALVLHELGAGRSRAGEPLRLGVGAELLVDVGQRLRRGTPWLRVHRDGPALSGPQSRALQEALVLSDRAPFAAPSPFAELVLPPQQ

Thymidine phosphorylase [2] = biological target: T1, Thymidine phosphorylase; assay: Inhibition of human placental thymidine phosphorylase
[3] = Acid dissociation constant, pKa of the compound; format: physicochemical

Compound: NCCNc1[nH]c(=O)[nH]c(=O)c1-c1ccccc1
- Ki (Thymidine phosphorylase [1]): > 20 µM
- Ki (Thymidine phosphorylase [2]): > 20 µM

Compound: Cc1[nH]c(=O)[nH]c(=O)c1-c1ccccc1
- Ki (Thymidine phosphorylase [1]): > 20 µM
- Ki (Thymidine phosphorylase [2]): > 20 µM

Compound: O=c1[nH]c(Cl)c(C2=CCCC2)c(=O)[nH]1
- pKa [3]: 5.8

Compound: O=c1[nH]c(N2CCCC2)c(-c2ccccc2)c(=O)[nH]1
- Ki (Thymidine phosphorylase [1]): > 20 µM
- Ki (Thymidine phosphorylase [2]): > 20 µM

Compound: CCc1c(Cl)[nH]c(=O)[nH]c1=O
- Ki (Thymidine phosphorylase [1]): > 20 µM
- Ki (Thymidine phosphorylase [2]): > 20 µM
